Laboratory results taken from ChEMBL document CHEMBL1136964, “Nicotinic agonist binding site mapped by methionine- and tyrosine-scanning coupled with azidochloropyridinyl photoaffinity labeling” (J Med Chem, 2009).

Assays:
Type in all cases: cell-based
HEK293S [1] = assay: Binding affinity to Aplysia californica AchBP Y195F mutant expressed in HEK293S cells assessed as specific photoincorporation at 46 pmol by scintillation counting relative to wild type
HEK293S [2] = assay: Binding affinity to Aplysia californica AchBP M116L,Y195F mutant expressed in HEK293S cells assessed as specific photoincorporation at 46 pmol by scintillation counting
HEK293S [3] = assay: Binding affinity to Aplysia californica AchBP I118M, M116L, Y195F mutant expressed in HEK293S cells assessed as specific photoincorporation at 46 pmol by scintillation counting
HEK293S [4] = assay: Binding affinity to Aplysia californica AchBP S114M, M116L mutant expressed in HEK293S cells assessed as specific photoincorporation at 46 pmol by scintillation counting
[5] = Binding affinity to Aplysia californica AchBP I118M, M116L, Y195F mutant expressed in HEK293S cells by scintillation proximity assay
HEK293S [6] = assay: Binding affinity to Aplysia californica AchBP I118M, M116L mutant expressed in HEK293S cells assessed as specific photoincorporation at 46 pmol by scintillation counting relative to wild type
[7] = Binding affinity to Aplysia californica AchBP I106M, M116L mutant expressed in HEK293S cells by scintillation proximity assay
HEK293S [8] = assay: Binding affinity to Aplysia californica AchBP I106M, M116L, Y195F mutant expressed in HEK293S cells assessed as specific photoincorporation at 46 pmol by scintillation counting
HEK293S [9] = assay: Binding affinity to Aplysia californica AchBP A107M mutant expressed in HEK293S cells assessed as specific photoincorporation at 46 pmol by scintillation counting
HEK293S [10] = assay: Binding affinity to Aplysia californica AchBP I106M, M116L mutant expressed in HEK293S cells assessed as specific photoincorporation at 46 pmol by scintillation counting
HEK293S [11] = assay: Binding affinity to Aplysia californica AchBP Y195F mutant expressed in HEK293S cells assessed as specific photoincorporation at 46 pmol by scintillation counting
HEK293S [12] = assay: Binding affinity to Aplysia californica AchBP A107M, M116L mutant expressed in HEK293S cells assessed as specific photoincorporation at 46 pmol by scintillation counting
HEK293S [13] = assay: Binding affinity to Aplysia californica AchBP V108M mutant expressed in HEK293S cells assessed as specific photoincorporation at 46 pmol by scintillation counting
[14] = Binding affinity to Aplysia californica AchBP I106M, M116L, Y195F mutant expressed in HEK293S cells by scintillation proximity assay
[15] = Binding affinity to Aplysia californica AchBP M116Y, Y195F mutant expressed in HEK293S cells by scintillation proximity assay
HEK293S [16] = assay: Binding affinity to Aplysia californica AchBP V108M, M116L mutant expressed in HEK293S cells assessed as specific photoincorporation at 46 pmol by scintillation counting relative to wild type
[17] = Binding affinity to Aplysia californica AchBP A107M, M116L mutant expressed in HEK293S cells by scintillation proximity assay

## Clc1ccc(C2CC3CCC2N3)cn1 (racemic) [EPIBATIDINE]
HEK293S [1]
  Activity: 3.4%
HEK293S [2]
  Activity: 2%
HEK293S [3]
  Activity: 4.7%
HEK293S [4]
  Activity: 19%
[5]
  Kd: 0.024 µM
HEK293S [6]
  Activity: 55%
[7]
  Kd: 0.012 µM
HEK293S [8]
  Activity: 3.7%
HEK293S [9]
  Activity: 27%
HEK293S [10]
  Activity: 26%
HEK293S [11]
  Activity: 1%
HEK293S [12]
  Activity: 29%
HEK293S [13]
  Activity: 9.5%
[14]
  Kd: 0.029 µM
[15]
  Kd: 0.115 µM
HEK293S [16]
  Activity: 28%
[17]
  Kd: 0.0075 µM
